We go through 30 molecules from patent publication US20250154163A1, “Pyrimidinone-Containing 17-Beta-Hydroxysteroid Dehydrogenase Type 13 Inhibitors” (ENANTA PHARMACEUTICALS, INC., priority 2023, published 2025).

Structures are written as SMILES.

The target of assay [1] is T1, Recombinant human 17β-HSD13 (Homo sapiens, UniProt Q7Z5P4).
T1 construct: host or cells: Sf9 insect cells
T1 sequence (Q7Z5P4 20-300): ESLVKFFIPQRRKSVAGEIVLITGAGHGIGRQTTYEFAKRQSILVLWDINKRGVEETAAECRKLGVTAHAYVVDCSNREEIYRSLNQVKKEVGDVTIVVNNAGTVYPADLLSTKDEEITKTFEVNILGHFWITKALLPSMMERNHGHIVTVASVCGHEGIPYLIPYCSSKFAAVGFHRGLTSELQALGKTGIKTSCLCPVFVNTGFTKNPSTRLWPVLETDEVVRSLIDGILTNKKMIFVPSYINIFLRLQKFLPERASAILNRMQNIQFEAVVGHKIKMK
Kind of assay: 17β-HSD13 rapid-fire mass spectrometry assay (RF/MS assay). The settings on record: inhibition of 17β-HSD13, RF/MS assay; HSD17B13 80 nM, LTB4 10 μM, NAD+ 0.5 mM, RT 3 h. The format is biochemical. An excerpt:
17(3-HSD13 rapid-fire mass spectrometry assay (RF/MS assay). Recombinant human 17β-HSD13 was expressed and purified from sf9 cells at Charles River Labs (Saffron Walden, UK). Leukotriene B4 (Catalog #71160-24-2) and 12-oxoleukotriene B4 (Catalog #20140) were purchased from Cayman Chemicals (Ann Arbor, MI). NAD+ (Catalog #N8285), BSA (Catalog #A7030), DMSO (Catalog #D2650), and Tween-20 (Catalog #11332465001) were purchased from Sigma (St. Louis, MO). Formic acid (Catalog #28905) was from ThermoFisher Scientific and 384 deep well PP microplates (Catalog #784261) were from Greiner Bio-One. In a typical IC50 assay performed in a 384w PP microplate, test compounds (0-100 μM) were incubated with HSD17B13 (80 nM), LTB4 (10 μM), and NAD^+ (0.5 mM) in 10 μL assay buffer (20 mM Tris (pH 7.5), BSA (0.005%), and Tween-20 (0.01%)) at RT for 3 h. The assays were quenched by adding 20 μL of 0.15% aqueous formic acid and the plates were frozen at −80° C. RF/MS analysis was performed at PureHoney Technologies (Billerica, MA) on a RapidFire RF300 system (Agilent Technologies, Inc.) coupled to an API 4000 triple quadrupole mass spectrometer (Sciex) equipped with Agilent RapidFire cartridge type A (C4). The mobile phase was 0.09% formic acid and 0.01% trifluoracetic acid in water (Buffer A) and 0.09% formic acid and 0.01% trifluoracetic acid in 80% aqueous acetonitrile (Buffer B). The RapidFire method conditions were the following: 250 ms aspirate, 3000 ms load/desalt, 4000 ms elute, and 500 ms re-equilibrate. RF-MS/MS was performed in negative polarity (−4500 V), the source temperature was 650° C., and gas 1 and gas 2 settings for nitrogen were set to 50. The curtain gas and collision gas were also nitrogen and were set to 20 and 12, respectively. Leukotriene B4 (335.3) and 12-oxoLeukotriene B4 (333.3) SRM transitions were optimized with Discovery Quant software and extracted ion counts for these analytes were determined.
Data Analysis. 17β-HSD13 enzyme activity was measured as percent conversion of extracted ion counts and normalized to high and low controls to determine percent residual activity at various concentrations of test compounds. Data was fitted to normalized activity (variable slope) versus concentration fit in GraphPad Prism 7 to determine IC50. All experiments were run in duplicates.
By using the above method, the inhibition of 17β-HSD13 was evaluated for the compounds of Formula (I). IC50 ranges are as follows: A is <0.1 μM; B is 0.1 μM-1.0 μM; C is 1.0 μM-10 μm; and D is >10 μM.

The target in assay [2] is T2, human HSD17β13 (stable HEK293T cell line overexpressing human HSD17β13) (Homo sapiens, UniProt Q7Z5P4).
T2 construct: expressed in transfected cells
T2 sequence (Q7Z5P4 20-300): T1 sequence (Q7Z5P4 20-300)
Kind of assay: HSD17β13 inhibitor cell-based screening assay (conversion of estradiol-d2 to estrone-d2 by RF-MS). The following applies: conversion of estradiol-d2 to estrone-d2 after 24 hours. Summed up: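 Cellular IC50 is based on 24-h conversion of estradiol-d2 (5 μM final) to estrone-d2, measured by RF-MS in acetonitrile-precipitated supernatants. Assay uses human HSD17β13-overexpressing HEK293T cells (7.5E3/well, 1% charcoal/dextran FBS MEM), with compounds dosed as a 9-point 1:3 series to 10 μM final. ATPlite luminescence on overexpressing and parent lines measured viability.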

Consider `O=c1c2c(nc(-c3cc(F)c(F)cc3C3CC3)n1Cc1cnc(C(F)(F)F)nc1)sc1c(O)c(Cl)ccc12` [Example 63, 7-chloro-2-(2-cyclopropyl-4,5-difluorophenyl)-8-hydroxy-3-((2-(trifluoromethyl)pyrimidin-5-yl)methyl)benzo[4,5]thieno[2,3-d]pyrimidin-4(3H)-one], for which the IC50 in assay [1] and in assay [2] was less than 100 nM in each case.

For `O=c1c2c(nc(-c3cc(F)c(F)cc3C3CC3)n1Cc1cc(C(F)(F)F)on1)sc1c(O)c(Cl)ccc12` [Example 66, 7-chloro-2-(2-cyclopropyl-4,5-difluorophenyl)-8-hydroxy-3-((5-(trifluoromethyl)isoxazol-3-yl)methyl)benzo[4,5]thieno[2,3-d]pyrimidin-4(3H)-one], the concentration for half-maximal inhibition (IC50) in assay [1] and in assay [2] was less than 100 nM throughout.

With `CS(=O)(=O)c1ccc(-c2nc3sc4c(O)c(F)ccc4c3c(=O)n2Cc2cnc(C(F)(F)F)nc2)c(C2CC2)c1` [Example 71, 2-(2-cyclopropyl-4-(methylsulfonyl)phenyl)-7-fluoro-8-hydroxy-3-((2-(trifluoromethyl)pyrimidin-5-yl)methyl)benzo[4,5]thieno[2,3-d]pyrimidin-4(3H)-one], the IC50 in assay [1] and in assay [2] was less than 100 nM in each case.

Consider `CCOc1ccc(-c2nc3sc4c(O)c(Cl)ccc4c3c(=O)n2Cc2cnco2)c(C2CC2)c1` [Example 72, 7-chloro-2-(2-cyclopropyl-4-ethoxyphenyl)-8-hydroxy-3-(oxazol-5-ylmethyl)benzo[4,5]thieno[2,3-d]pyrimidin-4(3H)-one], for which the IC50 in assay [1] and in assay [2] was less than 100 nM in each case.

With `CC(C)Oc1ccc(-c2nc3sc4c(O)c(Cl)ccc4c3c(=O)n2Cc2cnco2)c(C2CC2)c1` [Example 73], the IC50 in assay [1] and in assay [2] was less than 100 nM each time.

Regarding `CC(C)(C)c1ccc(-c2nc3sc4c(O)c(Cl)ccc4c3c(=O)n2Cc2cnco2)c(C2CC2)c1` [Example 75, 2-(4-(tert-butyl)-2-cyclopropylphenyl)-7-chloro-8-hydroxy-3-(oxazol-5-ylmethyl)benzo[4,5]thieno[2,3-d]pyrimidin-4(3H)-one], the IC50 in assay [1] and in assay [2] was less than 100 nM in each case.

As to `COc1cc(C2CC2)c(-c2nc3sc4c(O)c(Cl)ccc4c3c(=O)n2Cc2cnco2)cc1F` [Example 76, 7-chloro-2-(2-cyclopropyl-5-fluoro-4-methoxyphenyl)-8-hydroxy-3-(oxazol-5-ylmethyl)benzo[4,5]thieno[2,3-d]pyrimidin-4(3H)-one], the IC50 in assay [1] and in assay [2] was less than 100 nM throughout.

Turning to `O=c1c2c(nc(-c3cc(Cl)c(Cl)cc3C3CC3)n1Cc1cnco1)sc1c(O)c(Cl)ccc12` [Example 77], the concentration for half-maximal inhibition (IC50) in assay [1] and in assay [2] was less than 100 nM each time.

Regarding `COc1cc(C2CC2)c(-c2nc3sc4c(O)c(Cl)ccc4c3c(=O)n2Cc2cnco2)cc1C(F)(F)F` [Example 78], the IC50 (in general, the concentration that gives 50% inhibition) is 100 to 1000 nM in assay [1] and less than 100 nM in assay [2].

Regarding `O=c1c2c(nc(-c3cc(C(F)(F)F)c(Cl)cc3C3CC3)n1Cc1cnco1)sc1c(O)c(Cl)ccc12` [Example 79], the IC50 in assay [1] and in assay [2] was less than 100 nM in each case.

Consider `COc1cc(-c2nc3sc4c(O)c(Cl)ccc4c3c(=O)n2Cc2cnco2)c(C2CC2)cc1F` [Example 82, 7-chloro-2-(2-cyclopropyl-4-fluoro-5-methoxyphenyl)-8-hydroxy-3-(oxazol-5-ylmethyl)benzo[4,5]thieno[2,3-d]pyrimidin-4(3H)-one], for which the 50% inhibitory concentration (IC50) in assay [1] and in assay [2] was less than 100 nM throughout.

For the molecule `COc1ccc(C2CC2)c(-c2nc3sc4c(O)c(Cl)ccc4c3c(=O)n2Cc2cnco2)c1` [Example 83], the IC50 in assay [1] and in assay [2] was less than 100 nM throughout.

As to `O=c1c2c(nc(-c3cc(F)c(F)cc3C3CC3)n1Cc1cc(C(F)(F)F)no1)sc1c(O)c(Cl)ccc12` [Example 85], the IC50 in assay [1] and in assay [2] was less than 100 nM in each case.

As to `COc1ccc(-c2nc3sc4c(O)c(Cl)ccc4c3c(=O)n2Cc2cnn(C)c2)c(C2CC2)c1` [Example 86], the IC50 in assay [1] and in assay [2] was less than 100 nM in each case.

`O=c1c2c(nc(-c3ncc(C(F)(F)F)cc3C3CC3)n1Cc1cc(C(F)(F)F)no1)sc1c(O)c(Cl)ccc12` [Example 96]: the IC50 in assay [1] and in assay [2] was less than 100 nM each time.

For the molecule `O=c1c2c(nc(-c3ncc(F)cc3C3CC3)n1Cc1cc(C(F)(F)F)no1)sc1c(O)c(Cl)ccc12` [Example 97], the IC50 in assay [1] and in assay [2] was less than 100 nM each time.

In the case of `O=c1c2c(nc(-c3ncc(C(F)(F)F)cc3C3CC3)n1Cc1cnc(C(F)(F)F)nc1)sc1c(O)c(Cl)ccc12` [Example 99], the half-inhibitory concentration (IC50) in assay [1] and in assay [2] was less than 100 nM in each case.

For `COc1cc(C2CC2)c(-c2nc3sc4c(O)c(Cl)ccc4c3c(=O)n2Cc2cnco2)cc1Cl` [Example 105, 7-chloro-2-(5-chloro-2-cyclopropyl-4-methoxyphenyl)-8-hydroxy-3-(oxazol-5-ylmethyl)benzo[4,5]thieno[2,3-d]pyrimidin-4(3H)-one], the IC50 in assay [1] and in assay [2] was less than 100 nM throughout.

Turning to `O=c1c2c(nc(-c3ccc(Cl)cc3C3CC3)n1Cc1cnco1)sc1c(O)c(Cl)ccc12` [Example 106], the IC50 in assay [1] and in assay [2] was less than 100 nM throughout.

In the case of `COc1ccc(-c2nc3sc4c(O)c(Cl)ccc4c3c(=O)n2Cc2cnco2)c(C2CCC2)c1` [Example 117], the 50% inhibitory concentration (IC50) in assay [1] is less than 100 nM; in assay [2], 100 to 500 nM.

With `O=c1c2c(nc(-c3cc(F)c(F)cc3C3CC3)n1Cc1cnco1)sc1c(O)c(Cl)ccc12` [Example 119], the 50% inhibitory concentration (IC50) in assay [1] and in assay [2] was less than 100 nM each time.

On to `COc1cc(-c2nc3sc4c(O)c(Cl)ccc4c3c(=O)n2Cc2cnco2)c(C2CC2)cc1Cl` [Example 120], for which the IC50 in assay [1] and in assay [2] was less than 100 nM each time.

Regarding `COc1ccc(-c2nc3sc4c(O)c(Cl)ccc4c3c(=O)n2Cc2cnco2)c(Br)c1` [Example 122], the IC50 in assay [1] and in assay [2] was less than 100 nM throughout.

Take `O=c1c2c(nc(-c3cc(F)c(Cl)cc3C3CC3)n1Cc1cnco1)sc1c(O)c(Cl)ccc12` [Example 123]: the IC50 in assay [1] and in assay [2] was less than 100 nM throughout.

Consider `COc1ccc(-c2nc3sc4c(O)c(Cl)ccc4c3c(=O)n2Cc2cnco2)c(C(C)C)c1` [Example 125], for which the IC50 in assay [1] and in assay [2] was less than 100 nM throughout.

Take `COc1ccc(-c2nc3sc4c(O)c(Cl)ccc4c3c(=O)n2Cc2cn(C(F)(F)F)nn2)c(C2CC2)c1` [Example 130]: the IC50 in assay [1] and in assay [2] was less than 100 nM throughout.

Consider `O=c1c2c(nc(-c3ccc(OC(F)(F)F)cc3C3CC3)n1Cc1cnco1)sc1c(O)c(Cl)ccc12` [Example 131], for which the IC50 in assay [1] and in assay [2] was less than 100 nM throughout.

`O=c1c2c(nc(-c3ccc(F)c(F)c3C3CC3)n1Cc1cnco1)sc1c(O)c(Cl)ccc12` [Example 132]: the IC50 in assay [1] and in assay [2] was less than 100 nM each time.

As to `O=c1c2c(nc(-c3cc(F)c(C(F)(F)F)cc3C3CC3)n1Cc1cnco1)sc1c(O)c(Cl)ccc12` [Example 133], the IC50 in assay [1] and in assay [2] was less than 100 nM each time.

For the molecule `O=c1c2c(nc(-c3ccc(C(F)(F)F)cc3C3CC3)n1Cc1cnco1)sc1c(O)c(Cl)ccc12` [Example 135], the IC50 in assay [1] and in assay [2] was less than 100 nM in each case.
